{
  "source": "patent US10111847B2",
  "about": "“Compounds and methods for modulating vascular injury” (The Regents of the University of California, priority 2012, dated 2018)",
  "key": {"[1]": {"system": "rabbit femoral arteries", "test": "Rabbit femoral artery balloon injury, acute response at 3 days", "assay_type": "in vivo, New Zealand White Rabbits", "protocol": "All animal experiments are performed under a protocol approved by University of California San Francisco Animal Care Committee. New Zealand White Rabbits (NZWR, Western Oregon Rabbit Company, Philomath, Oreg.) weighing 3 to 5 kg and maintained on a normal chow diet are used in all experiments. Animals are anesthetized for surgical procedures with intramuscular injection of ketamine (25 mg/kg) and xylazine (5 mg/kg), and maintained with inhalation of isoflurane. The balloon injury model is made as described by Conte et al. “Efficient repopulation of denuded rabbit arteries with autologous genetically modified endothelial cells,” Circulation. 1994; 89:2161-2169. Rabbits undergo bilateral external iliac and femoral artery injury with 2F Fogarty balloon catheter (Applied Medical Resources Corp. Rancho Santa Margarita, Calif.). After balloon injury RvD2 (10 nM, Cayman chemical, Ann Arbor, Mich.) is infused to luminal area of the right femoral artery and control vehicle (normal saline with 0.1% ethanol) is infused to the left femoral artery, and then left undisturbed for 20 minutes. For evaluation of acute effects the rabbits are euthanized at 3 days after injury by intravenous overdose of sodium Nembutal. The femoral arteries are harvested and cryosection is made for immunohistochemistry, and total RNA from treated and control tissue is isolated. For evaluation of subacute responses regarding intimal hyperplasia the rabbits are euthanized at 28 days after injury and the tissue is perfusion-fixed in 10% formalin and processed as described by Conte et al. Arterioscler Thromb Vasc Biol. 2005; 25:2081-2087.\nAll the immunofluorescent staining is completed on 6-μm-thick frozen sections fixed by ice cold acetone for 10 minutes. Goat anti-mouse IgG conjugated with Alexa Fluor 488 or 568 (1:100, respectively, Invitrogen) is selected as secondary antibody. Anti-Ki67 (1:100, NCL-L-Ki67-MM1, Novocastra Laboratories, Newcastle upon Tyne, UK) is utilized for cell proliferation detection. […] The proportion of Ki67 is calculated by absolute positive cell number divided by DAPI positive nuclei. Leukocyte infiltration index is calculated as number of nuclei in CD45 positive area divided by total number of DAPI positive nuclei.\nRvD1. […] Fluorescence was detected with TRITC filter allowing the detection of the DHE emission wavelength of 590-620 nm. The fluorescence lamp gain is standardized for all images and analyses. Fluorescence quantitation is performed using ImageJ analysis software (National Institute of Health, Bethesda, Md.). For VSMC the fluorescence intensity is determined for the DHE-stained control cells (no treatment control) from each experimental group and then individual treated cells from the same group are normalized to the corresponding value. […]"}, "[2]": {"system": "human saphenous vein vascular smooth muscle (sv-VSMC) cells", "test": "TNFα induced superoxide production (DHE) in sv-VSMC (Maresin-1)", "assay_type": "cell-based", "details": "100 nM; TNFα 10 ng/ml 4 hr", "protocol": "Mar-1. Cells were grown in 8-well chamber slides at a density of 15000 cells/well for 2 days for VSMCs and 50000 cells/well for 2 days for ECs in a 96 well plate. After treatments, cells were incubated with dihydroethidium (DHE, 3 μM, Invitrogen) or CellRox (Invitrogen Inc, 5 μM for ECs) in media for 30 minutes at 37° C. in a humidified chamber with 5% CO2 protected from light. DAPI nuclear counter staining was utilized for DHE staining. For DHE, fluorescence was detected with TRITC filter allowing the detection of the DHE emission wavelength of 590-620 nm. Fluorescence quantitation was performed using ImageJ analysis software. For ECs, fluorescence measurements were taken using a Spectramax M2e plate reader.\nFIGS. 13A-13D. Representative merged images of DHE staining, counterstained with DAPI. (A), Negative control. (B), TNFα at 10 ng/ml for 4 hr. […] (E) Quantitative comparison of DHE staining intensity in the nucleus of human saphenous vein vascular smooth muscle (sv-VSMC) cells, treated with TNFα and 7S and 7R-Maresin-1 with and without pertussis toxin. (F) Quantitative comparison of cellular ROS production by CellRox (Life technologies, Carlsbad, Calif.) in human saphenous vein endothelial (EC) cells treated with TNFα (1 ng/nil) and 7S-Maresin-1 (N>=3). […]"}},
  "data": [
    {"smiles": "CC/C=C\\C[C@H](O)[C@H](O)/C=C/C=C/C=C\\C=C\\[C@@H](O)C/C=C\\CCC(=O)O", "note": "[RvD2, resolvin D2]", "values": [
      {"measurement": "Cell proliferation (Ki-67 staining index), % inhibition vs control", "setting": "[1]; 10 nM intraluminal 20 minutes, 3 days after injury, P<0.01", "value": 51, "unit": "%"},
      {"measurement": "leukocyte infiltration (CD45 staining), % inhibition", "setting": "[1]; 10 nM intraluminal 20 minutes, 3 days after injury, P<0.05", "value": 41, "unit": "%"},
      {"measurement": "TNF-α, MCP-1, and IL-1α expression in treated arteries vs vehicle (qPCR)", "setting": "[1]; 10 nM intraluminal, 3 days after injury", "value": "significant reductions"},
      {"measurement": "injury-induced ROS production (DHE staining), % inhibition", "setting": "[1]; rabbit arteries 3 days after balloon injury, P<0.05", "value": 43, "unit": "%"}
    ]},
    {"smiles": "CC/C=C\\C/C=C\\C[C@H](O)\\C=C/C=C/C=C/[C@@H](O)C/C=C\\CCC(=O)O", "note": "[7S-Maresin-1, 7S,14R-dihydroxydocosa-4Z,8E,10Z,12Z,16Z,19Z-hexaenoic acid]", "values": [
      {"measurement": "TNF-α-induced superoxide production in VSMC", "setting": "[2]", "value": "significantly reduced"}
    ]}
  ]
}
